Data set [1] deals with HeLa, T-47D, WiDr, A549, HBL-100, and SW1573 cell lines. Nature of the data set: Antiproliferative SRB assay, whole panel of human solid tumor cell lines. The format is cell-based. The note with it: Homo sapiens; minimal to maximal GI50 across the cell lines tested, 48 h, SRB; read-out: GI50 values, range over all cell lines tested. The procedure: (§1) In vitro antiproliferative activity was evaluated using the protocol of the National Cancer Institute (NCI) after 48 h of drug exposure using the sulforhodamine B (SRB) assay.
(§2) The following human solid tumor cell lines were used in this study: HBL-100 (breast), HeLa (cervix), SW1573 (non-small cell lung), T-47D (breast), A549 (lung), and WiDr (colon). These cell lines were a kind gift from Prof. G. J. Peters (VU Medical Center, Amsterdam, The Netherlands). Cells were maintained in 25 cm^2 culture flasks in RPMI 1640 supplemented with 5% heat-inactivated fetal calf serum and 2 mM L-glutamine in a 37 °C, 5% CO2, 95% humidified air incubator. Exponentially growing cells were trypsinized and resuspended in antibiotic containing medium (100 units penicillin G and 0.1 mg of streptomycin per mL). Single cell suspensions displaying > 97% viability by trypan blue dye exclusion test were subsequently counted. After counting, dilutions were made to give the appropriate cell densities for inoculation onto 96-well microtiter plates. Cells were inoculated in a volume of 100 μL per well at densities of 5000 (WiDr and T-47D), and 2500 (A549, HeLa, SW1573 and HBL-100) cells per well, based on their doubling times.
(§3) Chemosensitivity tests were performed using the SRB assay of the NCI with slight modifications. Briefly, pure compounds were initially dissolved in DMSO at 400 times the desired final maximum test concentration. Control cells were exposed to an equivalent concentration of DMSO (0.25% v/v, negative control). Each agent was tested in triplicates at different dilutions in the range 1–100 μM. Drug treatment started on day 1 after plating. Drug incubation periods were 48 h, after which cells were precipitated with 25 μL of ice-cold 50% (w/v) trichloroacetic acid and fixed for 60 min at 4 °C. Then, the SRB assay was performed. The optical density (OD) of each well was measured at 530 nm, using BioTek’s PowerWave XS Absorbance Microplate Reader. Values were corrected for background OD from wells containing only culture medium. The percentage growth (PG) was calculated with respect to untreated control cells (C) at each level of drug concentrations based on the difference in OD at the start time (T0) and at the end of drug exposure (T), according to NCI formulas. Therefore, if T is greater than or equal to T0, the calculation is 100 × ((T − T0)/(C − T0)). If T is lower than T0, denoting cell death, the calculation is 100 × ((T − T0)/(T0)). The effect is defined as the growth percentage, where 50% growth inhibition (GI50) represents the concentration at which PG is +50. Based on these calculations, a PG value of 0 corresponds to the number of cells present at the beginning of drug exposure, while negative PG values denote net cell death.
Background: In SRB staining, fixed cells bind dye roughly in proportion to their protein.

For data set [2], the system named is A549. Nature of the data set: Antiproliferative SRB assay (NCI protocol), A549. The note with it: for Selectivity index (SI) on tumor cells: CC50 splenocytes / GI50 A549; for GI50: Homo sapiens, A549 (lung), 48 h drug exposure, SRB, ± SD. The format is cell-based, human. The procedure: as §1, §2, §3
Data set [3] concerns HBL-100. Nature of the data set: Antiproliferative SRB assay (NCI protocol), HBL-100. Format: cell-based, human. The note with it: for Selectivity index (SI) on tumor cells: CC50 splenocytes / GI50 HBL-100; for GI50: Homo sapiens, HBL-100 (breast), 48 h drug exposure, SRB, ± SD. The method, then:
as §1, §2, §3

In data set [4] the test system is HeLa. Nature of the data set: Antiproliferative SRB assay (NCI protocol), HeLa. Format: cell-based, human. Conditions: for Selectivity index (SI) on tumor cells: CC50 splenocytes / GI50 HeLa; for GI50: Homo sapiens, HeLa (cervix), 48 h drug exposure, SRB, ± SD. The method, then:
as §1, §2, §3

Data set [5] deals with Trypanosoma cruzi epimastigotes (RA strain). Nature of the data set: In vitro anti-Trypanosoma cruzi assay ((3H) thymidine uptake). The format is cell-based. The note with it: for pIC50: epimastigotes (RA strain), ± SD; for Selectivity Index on T. cruzi epimastigotes: CC50 splenocytes / IC50 epimastigotes. The method, then:
Trypanosoma cruzi epimastigotes (RA strain, from discrete typing unit (DTU) VI) were grown in a biphasic medium. Cultures were maintained by weekly passages at 28 °C [18].
The growth inhibition of T. cruzi epimastigotes was evaluated by a (^3H) thymidine uptake assay as previously described. Natural sesquiterpenes and derivatives were evaluated at concentrations ranging from 1.5 to 50 µg/mL. Benznidazole (Active Pharmaceutical Ingredient) was used as positive control (Elea). The percentage of inhibition was calculated as 100 = {((cpm of treated parasites)/(cpm of untreated parasites)) × 100}.
Figure 5 Effect of the natural sesquiterpene tessaric acid (1), ilicic acid (2), and ilicic alcohol (3) and their derivatives on T. cruzi. Epimastigotes (RA strain) were cultured in the presence of the compounds (50–1.5 µg/mL). Determinations were performed by triplicate. The results are expressed as the mean ± SD. (A) Effect of tessaric acid and derivatives on epimastigotes; (B) Effect of ilicic acid and derivatives on epimastigotes; (C) Effect of ilicic alcohol and derivatives on epimastigotes.

Data set [6] concerns T-47D. Nature of the data set: Antiproliferative SRB assay (NCI protocol), T-47D. The format is cell-based, human. The note with it: for Selectivity index (SI) on tumor cells: CC50 splenocytes / GI50 T-47D; for GI50: Homo sapiens, T47D, T-47D (breast), 48 h drug exposure, SRB, ± SD. The procedure:
as §1, §2, §3

Data set [7] deals with SW1573. Nature of the data set: Antiproliferative SRB assay (NCI protocol), SW1573. The format is cell-based, human. The note with it: for Selectivity index (SI) on tumor cells: CC50 splenocytes / GI50 SW1573; for GI50: Homo sapiens, SW1573 (non-small cell lung), 48 h drug exposure, SRB, ± SD. The procedure:
as §1, §2, §3

A short description of data set [8]: Cytotoxicity on primary cell culture (flow cytometry, PI). The format is cell-based. The note with it: Balb/c, mouse, primary splenocytes (spleen cells), ± SD, read-out: Cytotoxic activity on spleen cells (CC50). The method, then:
The cytotoxicity of the natural sesquiterpenes (1–3) and derivatives (4–19) was determined on primary cell cultures (splenocytes obtained from Balb/c mouse). […] Derivatives of tessaric acid have shown an improvement in CC50 values in comparison with the natural sesquiterpene 1. […] All the derivatives synthesized from alcohol ilicic (compounds 10–19) were more toxic to mammalian cells than the natural compound (3).
The cytotoxicity of the compounds was evaluated on splenocytes obtained from Balb/c mouse (1.5 × 10^5) and incubated with different drug dilutions (5–200 μg/mL) as previously described. Cell death was determined by flow cytometry using a BD FACSaria II cytometer. Cells incubated only with drug vehicle were used as 100% viability control, and death percentage was calculated according to the following formula: Death%=1−(%PI^−cells)drug−treated/(%PI^−cells)100% viability control × 100
The concentration capable of causing 50% cell death (CC50) was determined using a non-linear regression approach.

In data set [9] the test system is WiDr. Nature of the data set: Antiproliferative SRB assay (NCI protocol), WiDr. Conditions: for Selectivity index (SI) on tumor cells: CC50 splenocytes / GI50 WiDr; for GI50: Homo sapiens, WiDr (colon), 48 h drug exposure, SRB, ± SD. Format: cell-based, human. The method, then: as §1, §2, §3

pIC50: −log10 of the molar value.

For orientation: GI50 means the concentration at which growth is held to half of that of the control. The term pIC50 denotes the negative decadic logarithm of the IC50, by convention in mol/L. The CC50 is the concentration that lowers cell viability or growth by half. On to `C=C(C(=O)N(c1ccccc1)C(C)(C)C(=O)NCc1ccccc1)[C@@H]1CCC2=CC(=O)C[C@H](C)[C@@]2(C)C1` [Compound 6], for which the GI50 in data set [1] is 17 to 64 µM; in data set [2], 33 µM; in data set [3], 61 µM; in data set [4], 36 µM; in data set [6], 30 µM; in data set [7], 40 µM. Also, in [9], the GI50 turned out to be 44 µM. Further, the “Selectivity index (SI) on tumor cells” value in data set [2] is 3.1; in data set [3] it was 1.7; in [4] it was 2.9; in [6], 3.5; in data set [7], 2.6; in data set [9], 2.4. This compound had a pIC50 in [5] (Trypanosoma cruzi) of less than 4.00. Also, in [8], the CC50 was found to be 104 µM.
Turning to `C=C(C(=O)N(Cc1ccccc1)C(C)(C)C(=O)NCc1ccccc1)[C@@H]1CCC2=CC(=O)C[C@H](C)[C@@]2(C)C1` [Compound 7], the GI50 was 17 to 64 µM in data set [1]; 27 µM in data set [2]; 41 µM in [3]; 19 µM in data set [4]; 22 µM in data set [6]; 30 µM in data set [7]. Further, the GI50 in data set [9] was 37 µM. In addition, the “Selectivity index (SI) on tumor cells” value in data set [2] amounted to 1.4; in [3] it was 0.9; in data set [4], 2.0; in data set [6], 1.7; in [7], 1.3; in data set [9], 1.0. In addition, the “Selectivity Index on T. cruzi epimastigotes” value in [5] was 8.0. The values for the pIC50 in data set [5] (Trypanosoma cruzi) and in data set [5] were 5.03 and 5.33, respectively. Also, the CC50 in [8] was 38.1 µM.
With `C=C(C(=O)N(c1ccccc1)C(C)(C)C(=O)NC1CCCCC1)[C@@H]1CCC2=CC(=O)C[C@H](C)[C@@]2(C)C1` [Compound 8], the GI50 was 17 to 64 µM in data set [1]; 27 µM in [2]; 37 µM in [3]; 31 µM in [4]; 27 µM in data set [6]; 30 µM in [7]. Growth in data set [9] was halved (GI50) at 30 µM. The “Selectivity index (SI) on tumor cells” value in [2] worked out at 0.7; in data set [3] it was 0.5; in data set [4], 0.6; in data set [6] it was 0.7; in [7], 0.7; in [9], 0.7. Besides, the “Selectivity Index on T. cruzi epimastigotes” value in data set [5] stood at 0.3. In data set [5] (Trypanosoma cruzi), this compound showed a pIC50 of 4.20. For the same compound, the CC50 in data set [8] worked out at 19.8 µM.
On to `C=C(C(=O)N(Cc1ccccc1)C(C)(C)C(=O)NC1CCCCC1)[C@@H]1CCC2=CC(=O)C[C@H](C)[C@@]2(C)C1` [Compound 9], for which the GI50 in [1] is 17 to 64 µM; in data set [2], 28 µM; in data set [3], 47 µM; in data set [4], 24 µM; in data set [6], 21 µM; in data set [7], 30 µM. Also, it took 39 µM to inhibit growth in data set [9] by half (GI50). Further, the “Selectivity index (SI) on tumor cells” value is listed as 2.7 in [2]; 1.6 in data set [3]; 3.2 in data set [4]; 3.6 in data set [6]; 2.6 in [7]; 2.0 in data set [9]. The “Selectivity Index on T. cruzi epimastigotes” value in [5] is given as 1.7. The pIC50 in [5] (Trypanosoma cruzi) is 4.35. Besides, the CC50 in data set [8] came to 76.5 µM.
`C=C(C(=O)N(c1ccccc1)C(C)(C)C(=O)NC(C)(C)C)C1CCC2(C)CCCC(C)(O)C2C1` (stereo not shown) [Compound 10]: the GI50 was 17 to 64 µM in data set [1]; 31 µM in data set [2]; 64 µM in data set [3]; 37 µM in [4]; 36 µM in [6]; 50 µM in data set [7]. Further, in data set [9], growth was halved (GI50) at 45 µM. The “Selectivity index (SI) on tumor cells” value is reported as 2.5 in [2]; 1.2 in [3]; 2.1 in [4]; 2.2 in [6]; 1.6 in data set [7]; 1.7 in data set [9]. Moreover, the “Selectivity Index on T. cruzi epimastigotes” value in [5] is 4.0. The compound also gave a pIC50 in [5] (Trypanosoma cruzi) of 4.71. Also, the CC50 in [8] worked out at 78.2 µM.
Regarding `C=C(C(=O)N(Cc1ccccc1)C(C)(C)C(=O)NC(C)(C)C)C1CCC2(C)CCCC(C)(O)C2C1` (stereo not shown) [Compound 11], the GI50 is 17 to 64 µM in [1]; 20 µM in [2]; 33 µM in data set [3]; 19 µM in data set [4]; 23 µM in [6]; 33 µM in [7]. This compound displayed a GI50 in data set [9] of 29 µM. Also, the “Selectivity index (SI) on tumor cells” value amounted to 16.7 in data set [2]; 10.1 in data set [3]; 17.6 in data set [4]; 14.5 in [6]; 10.1 in [7]; 11.5 in data set [9]. Moreover, the “Selectivity Index on T. cruzi epimastigotes” value in data set [5] is given as 12.6. The pIC50 in data set [5] (Trypanosoma cruzi) is 4.58. The CC50 in [8] is 334 µM.
On to `C=C(Cn1cc(CCCCCCCCCC)nn1)[C@@H]1CC[C@@]2(C)CCC[C@@](C)(O)C2C1` (stereo partly shown) [Compound 16], for which the GI50 in [1] is 12 to 17 µM; in data set [4], 13 µM; in data set [6], 17 µM; in data set [9], 12 µM. The “Selectivity index (SI) on tumor cells” value in data set [4] was 6.3; in data set [6], 4.8; in [9], 6.8. Besides, in data set [5], the “Selectivity Index on T. cruzi epimastigotes” value is recorded as 9.4. Besides, the pIC50 in data set [5] (Trypanosoma cruzi) was 5.06. Besides, the CC50 in [8] was 82.4 µM.

The values above are taken from publication PMC9143450, “Oxonitrogenated Derivatives of Eremophilans and Eudesmans: Antiproliferative and Anti-Trypanosoma cruzi Activity” (Molecules, 2022).
